Source: patent publication US20240300934A1, “COMPOUNDS FOR MODULATING MYCOBACTERIUM TUBERCULOSIS RESPONSE” (priority 2021, published 2024)

How the values were obtained:
[1] = tested on: Mtb; conditions: mice that do not form caseous necrotic lesions; cited from earlier work
[2] = tested on: Mtb; conditions: subset of mice failing to respond; cited from earlier work
[3] = tested on: Mtb-infected J774 cells; conditions: 10 μM for 24 h; 5 days post-infection
[4] = tested on: Mtb; assay: Mtb growth assay in cholesterol media (OD600); type: cell-based, Mycobacterium tuberculosis; conditions: for Mtb growth in cholesterol media (in words): 10 μM, OD600; for Growth inhibition in cholesterol media phenotype: compared to C6
[5] = tested on: Mtb in J774 cells; assay: Mtb growth in J774 macrophage-like cells (mKO fluorescence); type: cell-based, Mycobacterium tuberculosis; conditions: for Mtb growth in J774 cells (in words): 10 μM, 6 days post-infection; for Inhibition of Mtb growth in J774 cells phenotype: compared to C6
Description: For the tertiary screen of selected hit compounds in J774 murine macrophage-like cells, 30,000 J774 cells/well were seeded in bar-coded 384-well black, clear bottom plates in a 30 μl volume in J774 infection media (DMEM+10% FBS+1 mM sodium pyruvate+2 mM L-glutamine) using a ThermoFisher Multidrop Combi reagent dispenser, one day prior to assay start. On the day of the assay, log-phase Mtb constitutively expressing mKO were pelleted and resuspended in 1 ml basal uptake buffer (0.5% bovine serum albumin+25 mM dextrose+0.5 mM MgCl2+1 mM CaCl2+0.1% gelatin in phosphate buffered saline (PBS), passed 6× though a tuberculin syringe with a 25 G×5/8″ needle, then resuspended in J774 infection media to a final OD600=0.2. 10 μl of this bacterial suspension was added to each well of the 384-well plates containing the J774 cells, followed by addition of 10 μl of the appropriate compounds (pre-aliquoted in v-bottom plates in a 1:1 mix of PBS:J774 infection media). Addition of Mtb and compounds were conducted using a Janus Ministation. For each test plate, two columns of controls (16 wells each) were included, with one column consisting of treatment with DMSO as a carrier control (negative control), and the other column consisting of treatment with 5 μM rifampicin (positive control). This tertiary assay was done as a dose-response assay in duplicate runs, with compounds tested beginning at a final concentration of 20 μM and two-fold dilutions down to 0.039 μM. Plates were kept in humidified ziplock bags in a 37° C., 5% CO2 incubator. 6 days post-infection, mKO fluorescence signal was read using a PerkinElmer EnVision multimode plate reader (bottom read filter, excitation 530/8 nm, Bodipy TMR D555 single mirror, emission 579/25 nm). mKO fluorescence in DMSO-treated control samples were defined as 100% growth, and fluorescence observed in treatment conditions calculated as a percentage from that set value.
For J774 infection in 96-well plates, 180,000 J774 cells were seeded per well in 180 μl of J774 infection media one day prior to infection. On the day of the assay, log-phase Mtb constitutively expressing mKO were pelleted and resuspended in 1 ml basal uptake buffer, passed 6× though a tuberculin syringe with a 25 G×5/8″ needle, then resuspended in J774 infection media to a final OD600=0.2. Media was removed from 96-well plate containing the J774 cells, with 140 μl of fresh J774 infection media added back to each well. 40 μl of the Mtb suspension at OD600=0.2 was added to each well, followed by addition of appropriate concentration of compound or DMSO in a 20 μl final volume in J774 infection media (compound final concentration 10 μM, rifampicin final concentration 5 μM, DMSO final concentration 0.1%/well). Bacterial mKO fluorescence was read immediately after infection using a Biotek Synergy Neo2 microplate reader (bottom read monochromator, excitation 543/10 nm, emission 565/10 nm), and again 6 days post-infection. Plates were kept in humidified ziplock bags in a 37° C., 5% CO2 incubator. mKO fluorescence in DMSO-treated control samples were defined as 100% growth, and fluorescence observed in treatment conditions calculated as a percentage from that set value.

[6] = tested on: rv2390c′::GFP reporter Mtb strain; type: cell-based, Mycobacterium tuberculosis; conditions: for rv2390c′::GFP reporter signal upon Mtb exposure to high [Cl−] (in words): 10 μM, 250 mM NaCl; for rv2390c′::GFP Cl− response phenotype: compared to C6
[7] = tested on: J774 cells; assay: Intracellular drug accumulation assay in J774 cells; conditions: 24 h exposure; uninfected J774 cells
[8] = tested on: Mtb; assay: Intrabacterial drug accumulation assay; conditions: 24 h exposure; 7H9 pH 7 ± 250 mM NaCl
[9] = tested on: Mtb in bone marrow-derived macrophages (BMDMs); assay: Mtb growth in primary murine bone marrow-derived macrophages (CFU); type: cell-based, Mycobacterium tuberculosis; conditions: 10 μM; added 2 hrs post-infection; eight-day time-course
Description: C57BL/6J wild type mice (Jackson Laboratories) were used for extraction of bone marrow-derived macrophages. Cells were harvested and expanded in DMEM containing 10% FBS, 15% L-cell conditioned media, 2 mM L-glutamine, 1 mM sodium pyruvate, and penicillin/streptomycin as needed in a 37° C. incubator in a 5% CO2 atmosphere. […] Macrophages were lysed with water containing 0.01% sodium dodecyl sulfate and a dilution series of the samples plated on 7H10 agar for CFU determination.

SMILES | efficacy in BALB/c mice [1] | response in C3HeB/FeJ mice [2] | accumulation in Mtb-infected J774 cells [3] | Mtb growth in cholesterol media (in words) [4] | Growth inhibition in cholesterol media phenotype [4] | Mtb growth in J774 cells (in words) [5] | Inhibition of Mtb growth in J774 cells phenotype [5] | rv2390c′::GFP reporter signal upon Mtb exposure to high [Cl−] (in words) [6] | rv2390c′::GFP Cl− response phenotype [6] | intracellular accumulation in J774 cells [7] | intrabacterial accumulation in Mtb [8] | Mtb bacterial load / growth in primary murine BMDM (in words) [9]
NC(=O)c1cnccn1 [pyrazinamide] | uniform efficacy across animals | heterogeneous response |  |  |  |  |  |  |  |  |  | 
CCSc1ccc(CN2CCN(c3nc4ccccc4o3)CC2)cc1 [JSF-4300, 2-(4-(4-(ethylthio)benzyl)piperazin-1-yl)benzo[d]oxazole] |  |  | robust accumulation | continuing to demonstrate the phenotypes seen with the parental C6 compound | Y | continuing to demonstrate the phenotypes seen with the parental C6 compound | Y | continuing to demonstrate the phenotypes seen with the parental C6 compound | Y | robust accumulation | robust accumulation | 
COc1ncc(CN2CCN(c3nc4ccccc4o3)CC2)cn1 [JSF-4271, 2-(4-((2-methoxypyrimidin-5-yl)methyl)piperazin-1-yl)benzo[d]oxazole] |  |  | minimal accumulation | no longer inhibited Mtb growth in cholesterol media | N | loss of the ability to inhibit Mtb growth | N | lost the ability | N | minimal accumulation | decreased accumulation | loss of the ability to inhibit Mtb growth
COc1nc2ccc(Br)cc2cc1[C@@H](c1ccccc1)[C@@](O)(CCN(C)C)c1cccc2ccccc12 [bedaquiline] | uniform efficacy across animals | heterogeneous response |  |  |  |  |  |  |  |  |  | 
